Patent publication US20240327382A1 (ALMAC DISCOVERY LIMITED, priority 2021, published 2024)

The molecules below were run against T1, Full-length USP19 (Homo sapiens, UniProt O94966) (assay: USP19 fluorescence polarisation (FP) assay, Ubiquitin-Lys-TAMRA substrate). Conditions: average of at least two duplicate experiments.
T1 construct: Full-length USP19 was purchased from Boston Biochem (E-576); purchased Boston Biochem E-576
T1 sequence (O94966 1-1318): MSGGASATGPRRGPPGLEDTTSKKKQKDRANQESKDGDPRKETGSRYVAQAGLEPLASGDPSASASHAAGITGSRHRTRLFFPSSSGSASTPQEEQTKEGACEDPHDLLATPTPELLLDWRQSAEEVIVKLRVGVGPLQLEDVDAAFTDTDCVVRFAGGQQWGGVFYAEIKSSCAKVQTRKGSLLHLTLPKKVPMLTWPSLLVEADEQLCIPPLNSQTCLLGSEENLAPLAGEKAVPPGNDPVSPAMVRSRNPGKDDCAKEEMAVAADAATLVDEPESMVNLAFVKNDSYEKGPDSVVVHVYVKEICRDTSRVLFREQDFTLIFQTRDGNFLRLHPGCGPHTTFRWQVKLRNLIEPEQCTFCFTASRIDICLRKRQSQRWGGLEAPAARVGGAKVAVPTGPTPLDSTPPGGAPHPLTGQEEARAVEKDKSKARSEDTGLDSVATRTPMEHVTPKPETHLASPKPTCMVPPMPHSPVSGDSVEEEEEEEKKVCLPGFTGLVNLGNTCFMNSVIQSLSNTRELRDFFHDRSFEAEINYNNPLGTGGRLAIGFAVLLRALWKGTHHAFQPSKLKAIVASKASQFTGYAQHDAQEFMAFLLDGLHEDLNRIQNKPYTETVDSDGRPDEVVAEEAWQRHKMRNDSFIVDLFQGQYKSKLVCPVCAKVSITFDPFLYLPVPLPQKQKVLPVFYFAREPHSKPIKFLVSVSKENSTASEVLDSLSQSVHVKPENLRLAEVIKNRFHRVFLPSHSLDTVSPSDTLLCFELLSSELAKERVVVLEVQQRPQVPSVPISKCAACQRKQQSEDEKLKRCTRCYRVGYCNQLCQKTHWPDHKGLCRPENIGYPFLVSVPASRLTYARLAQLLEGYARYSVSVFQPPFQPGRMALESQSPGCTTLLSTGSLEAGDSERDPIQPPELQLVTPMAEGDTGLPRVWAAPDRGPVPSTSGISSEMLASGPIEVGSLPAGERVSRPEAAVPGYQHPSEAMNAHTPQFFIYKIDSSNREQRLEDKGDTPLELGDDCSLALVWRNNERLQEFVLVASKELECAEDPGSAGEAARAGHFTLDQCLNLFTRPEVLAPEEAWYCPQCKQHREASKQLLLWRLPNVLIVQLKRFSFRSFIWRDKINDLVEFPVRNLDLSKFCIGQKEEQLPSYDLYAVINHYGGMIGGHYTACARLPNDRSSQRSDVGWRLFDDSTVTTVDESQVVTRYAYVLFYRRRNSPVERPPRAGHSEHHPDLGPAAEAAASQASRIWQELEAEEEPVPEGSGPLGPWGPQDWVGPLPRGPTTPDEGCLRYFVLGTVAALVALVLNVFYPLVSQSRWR
Type: biochemical
How it was run: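 Fluorescence polarisation (excitation 530 nm, parallel and perpendicular emission at 575 nm) was recorded every 15 min for 90 min after adding the ubiquitin-Lys-TAMRA isopeptide (500 nM as dispensed). Beforehand, the full-length enzyme (2.5 nM as dispensed) sat 30 min at RT with compound diluted from 200 μM to 2 μM in HEPES pH 7.4 buffer with 150 mM NaCl, 5 mM DTT, 0.05% BSA and 0.05% CHAPS. Values normalised to uninhibited wells gave IC50s by non-linear fitting, each the mean of two or more duplicate runs.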
For `O=C(N1CC[C@@H](Cn2ccc(-c3ccccc3)cc2=O)C2(CCCC2)C1)N1CC[C@@H](NC2(CF)COC2)C[C@H]1c1ccccc1` [Example 112, 1-(((R)-7-((2S,4R)-4-((3-(Fluoromethyl)oxetan-3-yl)amino)-2-phenylpiperidine-1-carbonyl)-7-azaspiro[4.5]decan-10-yl)methyl)-4-phenylpyridin-2(1H)-one], the IC50 was 10 to 100 nM.
`CN[C@@H]1CCN(C(=O)N2CCC(Cn3ccc(-c4ccccc4)cc3=O)CC2)[C@H](c2cc(F)ccc2F)C1` [Example 98, 1-((1-((2S,4R)-2-(2,5-Difluorophenyl)-4-(methylamino)piperidine-1-carbonyl)piperidin-4-yl)methyl)-4-phenylpyridin-2(1H)-one] gave an IC50 of under 10 nM.
With `O=C(N1CC[C@@H](Cn2cnc(-c3ccccc3)cc2=O)C2(CCCC2)C1)N1CC[C@@H](NC2CC2)C[C@H]1c1ccccc1` [Example 79, 3-(((R)-7-((2S,4R)-4-(Cyclopropylamino)-2-phenylpiperidine-1-carbonyl)-7-azaspiro[4.5]decan-10-yl)methyl)-6-phenylpyrimidin-4(3H)-one] the IC50 was under 10 nM.
For `CNC(=O)[C@@H]1CCN(C(=O)N2CC[C@@H](Cn3cnc(-c4ccccc4)cc3=O)C3(CCCC3)C2)[C@H](c2ccccc2)C1` [Example 176, (2S,4R)-N-Methyl-1-((R)-10-((6-oxo-4-phenylpyrimidin-1(6H)-yl)methyl)-7-azaspiro[4.5]decane-7-carbonyl)-2-phenylpiperidine-4-carboxamide], the IC50 was 100 to 1000 nM.
In the case of `CCN[C@@H]1CCN(C(=O)N2CC[C@@H](Cn3ccc(Cl)cc3=O)C3(CCCC3)C2)[C@H](c2cc(F)ccc2F)C1` [Example 179, 4-Chloro-1-(((R)-7-((2S,4R)-2-(2,5-difluorophenyl)-4-(ethylamino)piperidine-1-carbonyl)-7-azaspiro[4.5]decan-10-yl)methyl)pyridin-2(1H)-one], the IC50 is reported as under 10 nM.
In the case of `COc1ccccc1-c1cc(=O)n(C[C@@H]2CCN(C(=O)N3CC[C@@H](NCC(F)F)C[C@H]3c3cc(F)ccc3F)CC23CCCC3)cn1` [Example 134, 3-(((R)-7-((2S,4R)-4-((2,2-Difluoroethyl)amino)-2-(2,5-difluorophenyl)piperidine-1-carbonyl)-7-azaspiro[4.5]decan-10-yl)methyl)-6-(2-methoxyphenyl)pyrimidin-4(3H)-one], the IC50 is reported as under 10 nM.
Molecule `CN[C@@H]1CCN(C(=O)N2CC[C@@H](Cn3cnc(-c4ccccc4OC)cc3=O)C3(CCCC3)C2)[C@H](c2cccc(F)c2F)C1` [Example 149, 3-(((R)-7-((2S,4R)-2-(2,3-Difluorophenyl)-4-(methylamino)piperidine-1-carbonyl)-7-azaspiro[4.5]decan-10-yl)methyl)-6-(2-methoxyphenyl)pyrimidin-4(3H)-one] has an IC50 of under 10 nM.
`O=C(N1CC[C@@H](Cn2cnc(-c3ccccc3)cc2=O)C2(CCCC2)C1)N1CC[C@@H](NCc2ccc(F)cn2)C[C@H]1c1ccccc1` [Example 148, 3-(((R)-7-((2S,4R)-4-(((5-Fluoropyridin-2-yl)methyl)amino)-2-phenylpiperidine-1-carbonyl)-7-azaspiro[4.5]decan-10-yl)methyl)-6-phenylpyrimidin-4(3H)-one] showed an IC50 of under 10 nM.
Molecule `Cc1ccccc1-c1cc(=O)n(C[C@@H]2CCN(C(=O)N3CC[C@@H](N)C[C@H]3c3ccccc3)CC23CCCC3)cn1` [Example 77, 3-(((R)-7-((2,4R)-4-Amino-2-phenylpiperidine-1-carbonyl)-7-azaspiro[4.5]decan-10-yl)methyl)-6-(o-tolyl)pyrimidin-4(3H)-one] has an IC50 of under 10 nM.
`O=C(N1CC[C@@H](Cn2cnc(-c3ccccc3)cc2=O)C2(CCCC2)C1)N1CC[C@@H](NCc2ncccn2)C[C@H]1c1cc(F)ccc1F` [Example 169, 3-(((R)-7-((2S,4R)-2-(2,5-Difluorophenyl)-4-((pyrimidin-2-ylmethyl)amino)piperidine-1-carbonyl)-7-azaspiro[4.5]decan-10-yl)methyl)-6-phenylpyrimidin-4(3H)-one] gave an IC50 of under 10 nM.
In the case of `N[C@@H]1CCN(C(=O)N2CCC(Cn3cnccc3=O)C3(CCCC3)C2)[C@H](c2ccccc2)C1` (stereo partly drawn) [Example 30, 3-((7-((2S,4R)-4-Amino-2-phenylpiperidine-1-carbonyl)-7-azaspiro[4.5]decan-10-yl)methyl) pyrimidin-4(3H)-one], the IC50 is reported as 100 to 1000 nM.
For `CCN[C@@H]1CCN(C(=O)N2CCC(Cn3cnc(-c4ccccc4)cc3=O)CC2)[C@H](c2ccccc2)C1` [Example 75, 3-((1-((2S,4R)-4-(Ethylamino)-2-phenylpiperidine-1-carbonyl)piperidin-4-yl)methyl)-6-phenylpyrimidin-4(3H)-one], the IC50 was 10 to 100 nM.
Molecule `C[C@H](CC(F)(F)F)C(=O)N1CCC(Cn2cnc(-c3ccccc3)cc2=O)C2(CCCC2)C1` (stereo partly drawn) [Example 4, 6-Phenyl-3-((7-((R)-4,4,4-trifluoro-2-methylbutanoyl)-7-azaspiro[4.5]decan-10-yl)methyl)pyrimidin-4(3H)-one] has an IC50 of 1000 to 20000 nM.
Molecule `N[C@@H]1CCN(C(=O)N2CCC(Cn3ccc(C(F)(F)F)cc3=O)C3(CCCC3)C2)[C@H](c2ccccc2)C1` (stereo partly drawn) [Example 43, 1-((7-((2S,4R)-4-Amino-2-phenylpiperidine-1-carbonyl)-7-azaspiro[4.5]decan-10-yl)methyl)-4-(trifluoromethyl) pyridin-2(1H)-one] has an IC50 of 10 to 100 nM.
With `CN[C@@H]1CCN(C(=O)N2CC[C@@H](Cn3cnc(-c4ccccc4OC)cc3=O)C3(CCCC3)C2)[C@H](c2ccccc2)C1` [Example 97, 6-(2-Methoxyphenyl)-3-(((R)-7-((2S,4R)-4-(methylamino)-2-phenylpiperidine-1-carbonyl)-7-azaspiro[4.5]decan-10-yl)methyl)pyrimidin-4(3H)-one] the IC50 was under 10 nM.
Work on `CN[C@@H]1CCN(C(=O)N2CC[C@@H](Cn3cnc(-c4ccccc4F)cc3=O)C3(CCCC3)C2)[C@H](c2cc(F)cc(F)c2)C1` [Example 143, 3-(((R)-7-((2S,4R)-2-(3,5-Difluorophenyl)-4-(methylamino)piperidine-1-carbonyl)-7-azaspiro[4.5]decan-10-yl)methyl)-6-(2-fluorophenyl)pyrimidin-4(3H)-one] yielded an IC50 of under 10 nM.
Work on `COc1ccccc1-c1cc(=O)n(C[C@]2(OC)CCN(C(=O)N3CC[C@@H](NC(C)C)C[C@H]3c3cc(F)ccc3F)CC23CCCC3)cn1` [Example 190, 3-(((S)-7-((2S,4R)-2-(2,5-Difluorophenyl)-4-(isopropylamino)piperidine-1-carbonyl)-10-methoxy-7-azaspiro[4.5]decan-10-yl)methyl)-6-(2-methoxyphenyl)pyrimidin-4(3H)-one] yielded an IC50 of under 10 nM.
With `CC1(C)CN(C(=O)N2CCNC[C@H]2c2ccccc2)CCC1Cn1ccc(-c2ccccc2)cc1=O` (stereo partly drawn) [Example 20, 1-((3,3-Dimethyl-1-((R)-2-phenylpiperazine-1-carbonyl)piperidin-4-yl)methyl)-4-phenylpyridin-2(1H)-one] the IC50 was 10 to 100 nM.
For `O=C(O)[C@@H]1CCN(C(=O)N2CC[C@@H](Cn3cnc(-c4ccccc4)cc3=O)C3(CCCC3)C2)[C@H](c2ccccc2)C1` [Example 175, (2S,4R)-1-((R)-10-((6-oxo-4-phenylpyrimidin-1(6H)-yl)methyl)-7-azaspiro[4.5]decane-7-carbonyl)-2-phenylpiperidine-4-carboxylic acid], the IC50 was 100 to 1000 nM.
